In patent US9820987B2, “Modulator compounds of drug resistance in epithelial tumor cells” (BIONSIL S.R.L. in Liquidazione, priority 2007, dated 2017):
Read-outs that look alike come from different tables or passages of the source.

Assays:
HCT116 cells [1] = conditions: 200 μM 5FU, 72 hr
Method: (§1) 100% represent the percentage of living cells at day 0, before starting the treatment.
(§2) Viability was evaluated after 72 hr of incubation by calcein assay. 100% represent the percentage of living cells at day 0, before starting treatment with the drugs. […] At the end of the treatment, cell viability was evaluated by calcein assay. 100% represent the percentage of living cells at day 0, before starting treatment with the drugs.

HCT116p53KO cells [2] = assay: Calcein cell viability assay, ibrutinib with or without 5FU; format: cell-based, human; conditions: 72 hr; for percentage of live HCT116p53KO cells (100% = living cells at day 0): without ibrutinib 177.5%
Method: as §1, §2

[3] = tested on: HCT116p53KO, DLD-1 and SW480 cell lines; assay: cells; conditions: Homo sapiens, 72 h, read-out: cell mortality
Method: The tumor cell line initially used was HCT116p53KO (which differs from the wild type (wt) HCT116 due to the lack of gene p53), related to the colon tumor, while further detailed studies of specific genes were carried out on other drug-resistant tumor cell lines of the colon, such as DLD-1 and SW480, as well as on tumor cell lines of the lung and ovary. In particular, all cell lines that were the object of the analysis, were related to tumors of epithelial type.

HCT116 xenografts = assay: Subcutaneous xenograft, drug-sensitive tumors; conditions: for increase of the tumor doubling time / reduction in the tumor volume: 5FU versus untreated or ibrutinib-treated group p<0.05; for average volume of the tumor masses: after 28 days, alone or combined, control ≈435
[4] = tested on: tumor cells of the colon-rectum in advanced phase; conditions: therapy based on 5FU; cited from earlier work
HCT116p53KO xenografts = assay: Subcutaneous xenograft, drug-resistant tumors; conditions: for average volume of the tumor masses: after 28 days, 5FU 60 mg/kg i.p. twice a week, alone or combined, control ≈955
HCT116p53KO cells [5] = conditions: 200 μM 5FU, 20 μM ibrutinib, singly or combined, 72 hr
wt HCT116 cells = assay: cells; conditions: Homo sapiens, HCT-116, 72 h, read-out: cell mortality
HCT116 cells [6] = conditions: 72 hr
[7] = tested on: HCT116 overexpressing p65BTK (HCT116-p65BTK); conditions: 200 μM 5FU, 72 hr
Method: as §2

SW480 colon cancer cells = conditions: 72 hr
Method: FIG. 26a: SW480; FIG. 26b: HT-29.
as §2
100% represent the percentage of living cells at day 0, before starting treatment with the drugs.

HT-29 colon cancer cells = conditions: with 200 μM 5FU, 72 hr
Method: Cells were treated for 72 hrs in absence of any drug or in presence of FU 200 μM; 1 μM AVL-292; 1 μM AVL-292+5FU 200 μM; 5 μM AVL-292; 5 μM AVL-292+5FU 200 μM; 10 μM AVL-292; […]; viability was evaluated at the end of the incubation using the calcein assay. FIG. 26a: SW480; FIG. 26b: HT-29.
In the experiments shown in FIG. 26 SW480 and HT-29 colon carcinoma cell lines were grown in vitro for 72 hr in the presence of different concentrations of AVL-292, a small molecule inhibitor of BTK, (Celgene Corporation, Summit, N.J.) (from 0 to 20 μM) and of 5FU (200 μM)+AVL-292 (from 0 to 20 μM); cell viability was evaluated at the end of the incubation using the calcein assay. 100% represent the percentage of living cells at day 0, before starting treatment with the drugs.

[8] = tested on: SKOV cells (ovarian tumor); assay: Cell death with or without BTK inhibition by LFM-A13; format: cell-based, human; conditions: 200 μM 5FU, 50 μM OxPt, or the combination of the two
From the text: (§3) The diminution of the resistance to chemotherapeutic drugs following the functional blocking of the gene BTK by means of LFM-A13 was further confirmed by tests conducted in vitro on epithelial tumor cell lines different from those of the colon. In FIG. 11 levels of BTK have been investigated, by means of Western blot, in several different epithelial carcinoma cell lines showing that the kinase is expressed in most of them. In particular, in FIGS. 12a and 12b, graphs were reported of the reversion tests obtained on SKOV cell lines (related to an ovarian tumor) and A549 cell lines (related to a lung tumor).
(§4) In detail, FIG. 12a compares the percentages of cell deaths in the absence (symbol “NT” and “−”) and presence of 200 μM 5FU, 50 μM OxPt, and the combination of the two upon resistant ovarian (SKOV) cells with or without BTK inhibition through the usage of LMFA13. […] FIG. 12b compares the percentages of cell deaths in the absence (symbol “NT” and “−”) and presence of 200 μM 5FU, 50 μM OxPt, and the combination of the two upon resistant lung (A549) cells with or without BTK inhibition through the usage of LMFA13.

A549 cells (lung tumor) = assay: as above; format: cell-based, human; conditions: 200 μM 5FU, 50 μM OxPt, or the combination of the two
From the text: as §3, §4

HCT116p53KO cells [9] = assay: Caspase 3/7 activation assay; format: cell-based, human; conditions: 5FU-treated cells in the presence of LFM-A13; luminometric assay
From the text: FIG. 14 is a graph illustrating the results of […] caspase activation assays after 72 hrs and 96 hrs in HCT116 and HCT116p53KO colon carcinoma cells treated with 5FU, BTK inhibition, or the combination of the two.
The results have shown that BTK levels determine the sensitivity of tumor cells to 5FU and that BTK inhibition reverses drug-resistance. […] The same finding is also supported by the graph reported in FIG. 14, evaluating the level of caspase 3/7 activation upon 5FU treatment in HCT116p53KO resistant cells in the presence or in the absence of BTK inhibitor LFM-A13. High levels of caspase 3/7 activation, measured by means of a luminometric assay as RLU/number of cells, are observed in 5FU-treated HCT116p53KO cells only when BTK is inhibited.

HCT116p53KO cells [10] = assay: Reversion of 5FU resistance by functional blocking of BTK (cell death); format: cell-based, human; conditions: 200 μM 5FU, 72 hr; agents compared with each other
From the text: FIG. 8 is a graph illustrating the reversion of the resistance to a chemotherapeutic drug of tumor cell line HCT116p53KO carried out by means of functional blocking of the gene BTK obtained with different methods.
In FIG. 8, the results of the comparison test are reported in a graph of the functional blocking of the BTK gene by means of plasmids (e.g., encoding p68BTK), siRNA or LFM-A13 in samples of HCT116p53KO cells treated with 5FU. […] In detail, FIG. 8 compares the percentages of cell deaths in the presence of 200 μM 5FU (72 hr treatment) upon wt HCT116 cells and HCT116p53KO drug resistant cells with or without (symbol “empty” and “−”) specific depletions of BTK following transient siRNA transfection (symbol “BTKi”), stable retroviral-mediated RNA interference (symbol “shBTK”), and using LFMA13, an inhibitor compound of BTK.

[11] = tested on: HCT116p53KO, SW480, DLD-1 and HCT116 cell lines; conditions: up to 10 μM, 72 hours
[12] = tested on: 5FU-resistant, p53-null (HCT116p53KO, SW480 and HT-29) cell lines; assay: Calcein cell viability assay, ibrutinib dose range; format: cell-based, human; conditions: highest concentration (range 0 to 30 μM), 72 hours
From the text: as §1

HCT116p53KO cells [13] = assay: Short-term viability under targeted therapy with or without ibrutinib (MTT); format: cell-based, human; conditions: 25 μg/ml bevacizumab, 10 μg/ml cetuximab or 75 μg/ml panitumumab alone, 72 hr
[14] = 5FU 60 mg/kg ± dasatinib 50 mpk, p<0.05
[15] = dasatinib 50 mpk oral gavage once a day 5 days a week
[16] = ibrutinib 25 mpk oral gavage once daily 5 days a week

Q: For `O=c1[nH]cc(F)c(=O)[nH]1` [5FU, 5-fluorouracil], which “response to the cytotoxic effect of 5FU” value (HCT116 cells [1]) is on record?
A: The value was “sensitive”.

Q: And the effect on viability (HCT116p53KO cells [2]; 5FU 200 μM alone)?
A: Its effect on viability is “little effect”.

Q: What about the mortality at 200 µM [3] of the same compound?
A: Its mortality at 200 µM is less than 10%.

Q: And the “increase of the tumor doubling time versus untreated (or dasatinib-treated) group” value (HCT116 xenografts; [14])?
A: Its value is “significant”.

Q: And the “reduction in the tumor volume versus untreated (or dasatinib-treated) group” value (HCT116 xenografts; [14])?
A: Its value is “significant”.

Q: And the “increase of the tumor doubling time” value (HCT116 xenografts; 5FU 60 mpk, ibrutinib 25 mpk)?
A: The value was “significant”.

Q: What about the “reduction in the tumor volume” value (HCT116 xenografts; 5FU 60 mpk, ibrutinib 25 mpk) of the same compound?
A: The value was “significant”.

Q: What about the “increase of the tumor doubling time” value (HCT116 xenografts; 5FU 60 mpk, ibrutinib 50 mpk) of the same compound?
A: Its value is “significant”.

Q: And the “reduction in the tumor volume” value (HCT116 xenografts; 5FU 60 mpk, ibrutinib 50 mpk)?
A: Its value is “significant”.

Q: What about the “average volume of the tumor masses” value (HCT116 xenografts; 5FU 60 mg/kg, dasatinib 50 mpk) of the same compound?
A: Its value is 226 mm^3.

Q: What about the “average volume of the tumor masses” value (HCT116 xenografts; 5FU 60 mpk, ibrutinib 25 mpk) of the same compound?
A: Its value is “≈ 226 mm^3”.

Q: What about the “average volume of the tumor masses” value (HCT116 xenografts; 5FU 60 mpk, ibrutinib 50 mpk) of the same compound?
A: Its value is “≈ 226 mm^3”.

Q: What about the “effective response (share of the cells)” value [4] of the same compound?
A: The value was 10-15%.

Q: And the “reduction of the tumor volume (significance)” value (HCT116p53KO xenografts; 5FU 60 mpk, ibrutinib 25 mpk, 5FU+Ibr25 Vs. Ctrl p=0.012, Vs. Ibr25 p=0.039)?
A: The value was “did not cause a significant reduction”.

Q: And the “average volume of the tumor masses” value (HCT116p53KO xenografts; [15])?
A: Its value is “≈ 530 mm^3”.

Q: What about the “average volume of the tumor masses” value (HCT116p53KO xenografts; [16]) of the same compound?
A: The value was “≈ 530 mm^3”.

Q: And the “cell death (photographs)” value (HCT116p53KO cells [5])?
A: Its value is “no cell death”.

Q: What about the mortality at 200 µM (wt HCT116 cells) of the same compound?
A: The mortality at 200 µM was greater than 95%.

Q: What about the “cell death (photographs)” value (HCT116 cells [6]; 10 μM 5FU, 10 μM ibrutinib, singularly or in combination) of the same compound?
A: The value was “no cell death”.

Q: What about the “cell death (photographs)” value (HCT116 cells [6]; 5FU 200 μM) of the same compound?
A: Its value is “massive cell death”.

Q: And the “response to the cytotoxic effect of 5FU” value [7]?
A: The value was “resistant”.

Q: Which results are given for `C=CC(=O)Nc1cccc(Nc2nc(Nc3ccc(OCCOC)cc3)ncc2F)c1` [AVL-292]?
A: cell death (SW480 colon cancer cells; 5 μM combined with 200 μM 5FU): 66.8%; cell death (SW480 colon cancer cells; 10 μM alone): 19.9%; cell death (SW480 colon cancer cells; 20 μM alone): 65.3%; AVL-292 concentration from which sensitization to the cytotoxic effect of 5FU starts (HT-29 colon cancer cells): ≥ 20 µM

Q: Which “percentage of cell deaths with LFM-A13 compared to without” value [8] does the source give for `C/C(O)=C(\C#N)C(=O)Nc1cc(Br)ccc1Br` [LFM-A13, (2Z)-2-cyan-N-(2,5-dibromophenyl)-3-hydroxy-2-butenamide] here?
A: Its value is “high percentage of tumor cell death”.

Q: What about the “percentage of cell deaths with LFM-A13 compared to without” value (A549 cells (lung tumor)) of the same compound?
A: Its value is “high percentage of tumor cell death”.

Q: And the “caspase 3/7 activation” value (HCT116p53KO cells [9])?
A: Its value is “High levels”.

Q: What about the “level of reversion to the drug resistance, expressed as percentage fraction of dead cells” value (HCT116p53KO cells [10]) of the same compound?
A: The value was “comparable”.

Q: For `Cc1nc(Nc2ncc(C(=O)Nc3c(C)cccc3Cl)s2)cc(N2CCN(CCO)CC2)n1` [dasatinib], which “average volume of the tumor masses” value (HCT116 xenografts; 5FU 60 mg/kg, dasatinib 50 mpk) is on record?
A: The value was “≈ 343 mm^3”.

Q: And the “average volume of the tumor masses” value (HCT116p53KO xenografts; [15])?
A: The value was “≈ 355 mm^3”.

Q: Which “percentage of live HCT116p53KO cells (100% = living cells at day 0)” value (HCT116p53KO cells [2]; 10 μM ibrutinib) does the source give for `C=CC(=O)N1CCC[C@@H](n2nc(-c3ccc(Oc4ccccc4)cc3)c3c(N)ncnc32)C1` [ibrutinib] here?
A: Its value is 130.2%.

Q: What about the “percentage of live HCT116p53KO cells (100% = living cells at day 0)” value (HCT116p53KO cells [2]; 20 μM ibrutinib) of the same compound?
A: The value was 116.1%.

Q: What about the “average volume of the tumor masses” value (HCT116 xenografts; 5FU 60 mpk, ibrutinib 25 mpk) of the same compound?
A: The value was “≈ 347 mm^3”.

Q: What about the “average volume of the tumor masses” value (HCT116 xenografts; 5FU 60 mpk, ibrutinib 50 mpk) of the same compound?
A: Its value is “≈ 372 mm^3”.

Q: What about the “average volume of the tumor masses” value (HCT116p53KO xenografts; [16]) of the same compound?
A: Its value is “≈ 760 mm^3”.

Q: What about the cytotoxicity [11] of the same compound?
A: The cytotoxicity was “not cytotoxic”.

Q: What about the “number of cells (100% = living cells at day 0)” value [12] of the same compound?
A: The value was “below 100%”.

Q: With “bevacizumab: monoclonal antibody used in anti-cancer therapy for targeting VEGF” as the compound, how does the cell viability (HCT116p53KO cells [13]) read?
A: Its cell viability is “does not affect”.

Q: Which cell viability (HCT116p53KO cells [13]) does the source give for “panitumumab: monoclonal antibody used in anti-cancer therapy for targeting EGFR” here?
A: Its cell viability is “does not affect”.
